Data published in ChEMBL document CHEMBL1201862, “PubChem BioAssay data set” (2004).
Active and inactive are the calls of the source.

Key:
[1] = Luminescence Cell-Based Dose Retest to Confirm Inhibitors of Cancer Stem Cells. [Related pubchem assays (depositor defined):AID2717, AID2721]; type: functional; conditions: Homo sapiens
HEK293 [2] = assay: HEK293T cell viability loss, resazurin readout – resazurin fluorescence, cytotoxicity control for NF-kB activator project, SAR follow-up (AID 493251); type: functional, cell-based; conditions: Homo sapiens
HEK293 [3] = assay: optical interference in Abeta FP readout, dose response, artefact control for IDE activator project, biochemical, fluorescence polarization (AID 588442); type: functional, cell-based; conditions: Homo sapiens
[4] = target: Tyrosyl-DNA phosphodiesterase 2 (Homo sapiens, UniProt O95551); assay: potency against TDP2 phosphodiesterase activity – biochemical, epi absorbance, IC50, dose response (AID 743297)
[5] = target: T1, Apoptotic protease-activating factor 1 (Homo sapiens, UniProt O14727); type: functional
T1 sequence (O14727 whole entry): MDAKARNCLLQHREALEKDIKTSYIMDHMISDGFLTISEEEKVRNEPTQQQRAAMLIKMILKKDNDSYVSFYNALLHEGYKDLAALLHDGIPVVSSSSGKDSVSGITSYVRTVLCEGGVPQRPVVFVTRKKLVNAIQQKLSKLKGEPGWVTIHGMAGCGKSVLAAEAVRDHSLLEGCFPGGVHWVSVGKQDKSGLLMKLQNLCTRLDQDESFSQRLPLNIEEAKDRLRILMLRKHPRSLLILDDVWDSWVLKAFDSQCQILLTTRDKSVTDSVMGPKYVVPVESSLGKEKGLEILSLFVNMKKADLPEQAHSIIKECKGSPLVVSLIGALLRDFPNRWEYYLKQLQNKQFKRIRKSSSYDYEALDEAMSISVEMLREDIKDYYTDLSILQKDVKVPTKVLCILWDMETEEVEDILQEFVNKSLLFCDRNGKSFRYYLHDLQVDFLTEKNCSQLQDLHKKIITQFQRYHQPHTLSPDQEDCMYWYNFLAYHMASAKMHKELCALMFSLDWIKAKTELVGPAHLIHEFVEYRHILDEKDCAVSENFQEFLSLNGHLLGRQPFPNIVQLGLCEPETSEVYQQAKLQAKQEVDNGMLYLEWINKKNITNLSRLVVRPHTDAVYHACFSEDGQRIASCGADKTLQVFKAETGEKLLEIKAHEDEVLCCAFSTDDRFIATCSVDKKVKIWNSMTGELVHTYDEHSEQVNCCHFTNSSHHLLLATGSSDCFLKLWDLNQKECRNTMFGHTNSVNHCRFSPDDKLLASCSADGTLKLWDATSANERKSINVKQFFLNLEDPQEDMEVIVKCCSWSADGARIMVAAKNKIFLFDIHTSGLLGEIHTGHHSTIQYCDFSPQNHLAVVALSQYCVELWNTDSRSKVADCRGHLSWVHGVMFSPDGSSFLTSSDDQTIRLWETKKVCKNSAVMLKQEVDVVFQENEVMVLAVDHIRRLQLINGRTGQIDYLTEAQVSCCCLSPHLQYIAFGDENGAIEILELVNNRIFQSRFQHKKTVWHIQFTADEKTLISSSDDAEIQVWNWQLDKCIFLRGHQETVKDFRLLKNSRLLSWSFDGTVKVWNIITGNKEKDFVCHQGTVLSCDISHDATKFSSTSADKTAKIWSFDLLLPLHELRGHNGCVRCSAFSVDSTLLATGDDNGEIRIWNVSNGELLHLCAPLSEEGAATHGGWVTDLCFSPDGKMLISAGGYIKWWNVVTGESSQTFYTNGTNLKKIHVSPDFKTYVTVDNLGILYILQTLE

Insulin-degrading enzyme = target: T2, Insulin-degrading enzyme (Homo sapiens, UniProt P14735); assay: recombinant IDE activation, cell-free – biochemical, fluorescence polarization, counter-screen for IDE activator project, dose response (AID 588681)
T2 sequence (P14735 whole entry): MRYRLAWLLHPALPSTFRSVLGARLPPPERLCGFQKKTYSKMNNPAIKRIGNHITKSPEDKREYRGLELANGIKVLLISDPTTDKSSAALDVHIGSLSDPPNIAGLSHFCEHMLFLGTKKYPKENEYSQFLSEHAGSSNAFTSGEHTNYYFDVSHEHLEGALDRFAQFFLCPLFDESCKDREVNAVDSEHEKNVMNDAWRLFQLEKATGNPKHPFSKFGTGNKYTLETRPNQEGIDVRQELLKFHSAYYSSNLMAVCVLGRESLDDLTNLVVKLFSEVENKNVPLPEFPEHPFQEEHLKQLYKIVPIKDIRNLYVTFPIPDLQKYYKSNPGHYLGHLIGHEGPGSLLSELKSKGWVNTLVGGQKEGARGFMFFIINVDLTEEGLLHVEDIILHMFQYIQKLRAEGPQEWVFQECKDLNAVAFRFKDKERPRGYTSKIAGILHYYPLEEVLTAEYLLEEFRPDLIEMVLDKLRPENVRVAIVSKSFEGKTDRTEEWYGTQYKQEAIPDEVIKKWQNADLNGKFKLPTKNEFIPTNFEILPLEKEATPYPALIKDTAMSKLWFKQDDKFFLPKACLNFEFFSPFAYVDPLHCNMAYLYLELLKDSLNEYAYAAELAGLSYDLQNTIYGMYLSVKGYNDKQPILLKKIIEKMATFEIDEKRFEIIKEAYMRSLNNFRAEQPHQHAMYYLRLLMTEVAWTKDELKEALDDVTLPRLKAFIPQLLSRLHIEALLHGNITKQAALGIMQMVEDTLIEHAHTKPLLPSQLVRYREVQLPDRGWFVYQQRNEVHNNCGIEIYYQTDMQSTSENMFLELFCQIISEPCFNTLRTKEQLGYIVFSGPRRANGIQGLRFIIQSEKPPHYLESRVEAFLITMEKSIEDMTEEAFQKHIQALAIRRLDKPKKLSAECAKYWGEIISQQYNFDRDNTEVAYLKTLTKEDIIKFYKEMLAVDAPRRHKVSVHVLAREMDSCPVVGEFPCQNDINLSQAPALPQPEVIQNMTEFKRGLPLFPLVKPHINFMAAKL

[6] = Counterscreen for activators of the function of SWI/SNF related, matrix associated, actin dependent regulator of chromatin, subfamily a, member 2 (SMARCA2, BRM): Luminescence-based cell-based high throughput dose response assay to identify non-selective compounds using the VP16 reporter assay.; type: functional
[7] = target: Cystic fibrosis transmembrane conductance regulator/Golgi-associated PDZ and coiled-coil motif-containing protein (Homo sapiens, UniProt P13569+Q9HD26); assay: potency against CAL PDZ-peptide interaction – biochemical, fluorescence polarization, Cerulean-tagged CAL PDZ, cherry-picks, dose response (AID 504773)
ORF 73 = ORF 73 (Human herpesvirus 8, UniProt O40947); assay: KSHV LANA DNA-binding disruption – biochemical, fluorescence polarization, cherry-picked samples, dose response (AID 504725); parameters: species or system Human gammaherpesvirus 8;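 note: fluorescence polarization of a labeled DNA duplex reporting LANA DNA binding; potency is for inhibitors that block LANA binding to the DNA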
ORF 73, sequence (O40947 whole entry): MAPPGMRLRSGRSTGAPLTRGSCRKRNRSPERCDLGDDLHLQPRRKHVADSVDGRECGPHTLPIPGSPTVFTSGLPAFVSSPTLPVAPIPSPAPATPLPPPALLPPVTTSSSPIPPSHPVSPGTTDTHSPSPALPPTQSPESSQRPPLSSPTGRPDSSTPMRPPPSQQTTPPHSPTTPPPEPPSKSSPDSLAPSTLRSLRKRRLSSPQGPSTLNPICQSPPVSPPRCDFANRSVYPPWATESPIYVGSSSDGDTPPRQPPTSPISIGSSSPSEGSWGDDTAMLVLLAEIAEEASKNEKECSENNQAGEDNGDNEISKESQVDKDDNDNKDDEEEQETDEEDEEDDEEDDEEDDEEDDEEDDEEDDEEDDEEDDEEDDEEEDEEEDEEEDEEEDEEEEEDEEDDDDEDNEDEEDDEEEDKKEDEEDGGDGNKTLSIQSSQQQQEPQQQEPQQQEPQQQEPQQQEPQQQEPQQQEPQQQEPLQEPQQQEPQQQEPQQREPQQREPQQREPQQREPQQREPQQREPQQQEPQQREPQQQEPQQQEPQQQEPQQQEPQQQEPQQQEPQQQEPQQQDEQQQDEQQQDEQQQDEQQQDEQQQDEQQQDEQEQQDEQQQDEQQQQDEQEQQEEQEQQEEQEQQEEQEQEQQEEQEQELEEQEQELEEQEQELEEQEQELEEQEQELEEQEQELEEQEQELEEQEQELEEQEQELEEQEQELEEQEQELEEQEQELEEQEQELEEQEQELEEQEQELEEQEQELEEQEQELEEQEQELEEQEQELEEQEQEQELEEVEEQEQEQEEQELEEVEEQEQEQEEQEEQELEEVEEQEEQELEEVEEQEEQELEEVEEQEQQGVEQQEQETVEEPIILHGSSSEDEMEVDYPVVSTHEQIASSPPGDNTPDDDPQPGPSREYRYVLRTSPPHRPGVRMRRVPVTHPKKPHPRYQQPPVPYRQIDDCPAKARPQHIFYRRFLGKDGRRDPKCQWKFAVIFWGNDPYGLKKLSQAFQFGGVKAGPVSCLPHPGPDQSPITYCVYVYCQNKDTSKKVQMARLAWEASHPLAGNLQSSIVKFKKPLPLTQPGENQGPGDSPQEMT

Cystic fibrosis transmembrane conductance regulator/Golgi-associated PDZ and coiled-coil motif-containing protein, sequence (P13569 whole entry, other chains not shown): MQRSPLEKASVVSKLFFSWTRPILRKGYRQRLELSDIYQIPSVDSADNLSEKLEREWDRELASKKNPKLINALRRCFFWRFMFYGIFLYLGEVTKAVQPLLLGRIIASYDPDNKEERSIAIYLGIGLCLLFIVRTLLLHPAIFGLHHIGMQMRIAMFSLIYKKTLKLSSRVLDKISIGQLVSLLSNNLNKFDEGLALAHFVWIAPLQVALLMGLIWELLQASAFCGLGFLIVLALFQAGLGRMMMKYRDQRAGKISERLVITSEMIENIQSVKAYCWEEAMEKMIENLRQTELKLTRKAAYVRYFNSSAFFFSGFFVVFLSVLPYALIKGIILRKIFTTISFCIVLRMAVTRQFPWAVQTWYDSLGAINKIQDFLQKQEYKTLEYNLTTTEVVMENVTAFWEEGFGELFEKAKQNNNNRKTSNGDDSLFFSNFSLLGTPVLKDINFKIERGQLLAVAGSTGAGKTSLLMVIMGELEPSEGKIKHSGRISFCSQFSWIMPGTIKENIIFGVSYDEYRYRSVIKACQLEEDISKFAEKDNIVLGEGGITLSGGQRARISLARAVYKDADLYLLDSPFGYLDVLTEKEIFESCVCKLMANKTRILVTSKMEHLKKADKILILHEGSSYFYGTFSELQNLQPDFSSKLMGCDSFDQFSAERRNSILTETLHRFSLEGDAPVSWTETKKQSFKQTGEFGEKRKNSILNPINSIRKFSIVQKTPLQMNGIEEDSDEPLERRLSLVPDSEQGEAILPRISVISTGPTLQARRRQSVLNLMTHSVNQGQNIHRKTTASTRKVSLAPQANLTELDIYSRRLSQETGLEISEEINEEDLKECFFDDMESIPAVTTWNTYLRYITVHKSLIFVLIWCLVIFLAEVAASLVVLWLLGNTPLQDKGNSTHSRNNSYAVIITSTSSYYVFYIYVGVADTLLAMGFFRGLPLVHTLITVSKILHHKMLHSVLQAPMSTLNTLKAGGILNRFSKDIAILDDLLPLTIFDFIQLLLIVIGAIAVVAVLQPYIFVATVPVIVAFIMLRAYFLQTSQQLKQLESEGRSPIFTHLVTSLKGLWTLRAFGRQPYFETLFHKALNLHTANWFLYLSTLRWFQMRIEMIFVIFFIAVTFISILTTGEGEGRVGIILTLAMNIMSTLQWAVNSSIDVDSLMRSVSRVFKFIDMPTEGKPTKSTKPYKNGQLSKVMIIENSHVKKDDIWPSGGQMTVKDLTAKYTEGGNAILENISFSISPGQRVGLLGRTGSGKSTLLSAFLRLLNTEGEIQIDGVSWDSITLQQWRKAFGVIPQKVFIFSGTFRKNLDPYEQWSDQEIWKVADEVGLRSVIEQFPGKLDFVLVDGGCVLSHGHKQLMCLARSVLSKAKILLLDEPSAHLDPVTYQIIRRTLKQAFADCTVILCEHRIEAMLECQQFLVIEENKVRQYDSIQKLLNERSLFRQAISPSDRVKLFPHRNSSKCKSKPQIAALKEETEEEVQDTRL
Tyrosyl-DNA phosphodiesterase 2, sequence (O95551 whole entry): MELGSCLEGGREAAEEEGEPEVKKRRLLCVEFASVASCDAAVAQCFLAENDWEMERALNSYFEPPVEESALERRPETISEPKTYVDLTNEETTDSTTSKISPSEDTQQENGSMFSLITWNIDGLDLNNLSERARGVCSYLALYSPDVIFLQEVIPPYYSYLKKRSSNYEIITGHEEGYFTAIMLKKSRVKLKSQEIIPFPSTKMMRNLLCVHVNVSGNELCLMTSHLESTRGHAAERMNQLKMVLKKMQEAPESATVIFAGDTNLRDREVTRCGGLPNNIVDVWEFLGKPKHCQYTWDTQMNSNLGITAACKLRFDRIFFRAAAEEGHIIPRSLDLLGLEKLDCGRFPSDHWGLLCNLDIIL

**Q.** For `CCCCC(=O)NC(c1ccco1)c1cc(Cl)c2cccnc2c1O` (centres undefined), which AC50 [1] is on record?
**A.** 3.33 µM (active)

**Q.** Which IC50 (HEK293 [2]) does the source give for `CCCCC(=O)NC(c1ccc(Cl)cc1)c1ccc2cccnc2c1O` (centres undefined) here?
**A.** 23.3 µM (inactive)

**Q.** With `COc1ccc2noc3c2c1C(=O)c1ccccc1-3` as the compound, how does the EC50 (HEK293 [3]) read?
**A.** > 54.7 µM (inactive)

**Q.** What about the IC50 [4] of the same compound?
**A.** 65.7 µM (inactive)

**Q.** And the IC50 [5]?
**A.** 42.5 µM (active)

**Q.** What about the EC50 (Insulin-degrading enzyme) of the same compound?
**A.** > 54.7 µM (inactive)

**Q.** And the EC50 [6]?
**A.** > 91.2 µM (inactive)

**Q.** And the AC50 [7]?
**A.** > 500 µM (inactive)

**Q.** What about the AC50 (ORF 73) of the same compound?
**A.** 0.228 µM (active)
